US10463716B2 (UNIVERSITY OF MARYLAND, BALTIMORE, priority 2014, dated 2019)

Assays:
Sprague-Dawley rats = experiment: MI-induced heart failure by coronary artery ligation in rats, Fc-ELA-32; assay type: in vivo, rat
Procedure: It was studied whether Fc-ELA fusion proteins have cardioprotective activities in heart failure caused by myocardial infarction (MI) in rats. MI was inflicted by standard left anterior descending coronary artery ligation (CAL) in Sprague-Dawley rats (8-weeks old, male). One week post-operation, recombined Fc-ELA-32 protein was administrated by subcutaneous injection at the dosage of 300 μg/kg bodyweight/day for two weeks. Phosphate-buffered saline (PBS) was used as the control. One week after the administration or at the end of the four weeks of MI, cardiac performance was evaluated by a pressure transducer which was inserted retrograde from the right carotid artery to the left ventricle cavity. Heart tissue samples were taken and fixed with 4% paraformaldehyde for 24 hours and then embedded in paraffin and sectioned for histopathologic examination.
Apoptosis was assessed by terminal deoxynucleotidyl transferase-mediated dUTP nick end labeling (TUNEL) and caspase-3 activity assay. […] TUNEL-positive nuclei in the LV free wall were counted within a 4-mm^2 square of field. […]
Masson staining which specifically stains collagens in blue was conducted on tissue sections of the infarcted heart area. Collagen volume fraction (CVF) is calculated by dividing of the blue stained area, which scattered between the surviving myocytes and around the blood vessels by the total area. […]

C57/BL6 mice = experiment: Diuresis in anesthetized mice; assay type: in vivo, mouse; settings: 200 nmol/kg intravenously, one hour collection vs baseline hour
From the text: Four male C57/BL6 mice aged from 10 to 12 weeks were anesthetized with pentobarbital and then placed on a heated table to maintain body temperature and tracheotomized. Catheters were inserted into the external jugular veins for infusing normal saline to replace fluid loss and anesthesia, and into carotid artery for measuring blood pressure and heart rates. Urine was collected via a suprapubic cystostomy (PE-50-flanged end). After a 30-min stabilization period, urine was collected for a period of one hour as a baseline volume.

[1] = tested on: human pluripotent stem cells (PSCs); experiment: Cardiomyocyte differentiation from pluripotent stem cells; assay type: cell-based; settings: data not shown
From the text: The question of whether ELA-APJ promotes human pluripotent stem cells (PSCs) into mesoderm derivatives including mesenchymal stem cells, adipocytes and cardiomyocytes was studied. […] Without being bound by theory, the kidney is a crucial organ that maintains circulation homeostasis.

[2] = tested on: aldosterone synthase CYP11B2; experiment: Ang II-induced aldosterone synthase gene expression (qPCR) in HAC15 cells; assay type: cell-based, human; settings: ELA 50 nM, Ang II 10 nM, 47 hours
human cardiomyocytes = experiment: Hypoxia-induced apoptosis (TUNEL) in cardiomyocytes from human pluripotent stem cells; assay type: cell-based; settings: ELA 0.5 μM
From the text: Cellular mechanisms of cardioprotection in MI include the less cell death due to necrosis and apopotosis, increased angiogenesis and reduced fibrosis. […] Apelin is reported to protect against glucose deprivation-induced apoptosis in rat neonatal cardiomyocytes and to increase Akt and mTOR phosphorylation.

[3] = tested on: empty vector control CHO-K 1 cells; experiment: Parallel control experiments (cAMP, ERK, calcium) in empty vector cells; assay type: cell-based, Chinese hamster; settings: cells transduced with empty vector control viruses
From the text: Activation of APJ is known to result in a decrease of cAMP production, stimulation of ERK and increase in intercellular calcium mobilization (13). […] APJ-over-expressing and empty vector control CHO-K 1 cells were used in the studies. APJ expression was confirmed by RT-PCR. […] The response was dose-dependent up to the concentration of 10^−5M (FIG. 3C, lower panel).

mouse aortic rings = experiment: Endothelium-dependent and -independent vasorelaxation of aortic rings; settings: for decrease of relaxation by removal of endothelium: denuded vs endothelium-intact vessels
Procedure: Aortas were isolated from 8-10 weeks male wild-type C57BL/6 mice, cut into 3-mm rings and mounted in organ chambers (PowerLab, AD Instruments, CO, USA) in Kreb's buffer as described previously (11, 12). The contractile response was elicited by vasoconstrictor U46619 (30 nM) to produce contraction. […] In some preparations, the endothelium was mechanically removed from denuded arteries by gentle rubbing off the intimal surface with a wooden stick.
Apelin is reported to relax vascular tone (14) and lower blood pressure. […] The aortic rings were induced to contraction with vasoconstrictor U46619 (final concentration, 30 nM).
To further determine whether nitric oxide (NO) participated in the relaxation, the blood vessels were pretreated with L-NAME, an NO production inhibitor. […] The effect of apelin-13 on blood vessels was studied in parallel for comparison.

C57/BL mice = experiment: MI-induced heart failure by coronary artery ligation, echocardiography; assay type: in vivo, mouse
Procedure: C57/BL wild type mice at age of 14-16 months old were used. Mice were subjected to either MI by permanent ligation or sham treatment with a loose suture of the proximal left anterior descending (LAD) coronary artery under general anesthesia by 2% isoflurane inhalation, and mechanical ventilation via oral intubation. Left thoracotomy in the 3-4 intercostal space was performed and the pericardium was opened to expose the LV and the LAD. The artery was circled a 8-0 silk suture, and then either ligated permanently or remained loose (sham).
Twelve to 14 mice were used in each group.
Data were calculated with the accepted formulae, which have been validated in mice.
Coronary artery ligation (CAL) is a well-used procedure to create a mouse model of acute myocardial infarction (MI) and heart failure (HF). […] Echocardiography was conducted to access heart function before the procedure (baseline), and at 1 week and 5 weeks post-MI.

[4] = mature ELA hormone; cited from earlier work
HUVECs = experiment: In vitro angiogenesis (tube formation) assay; assay type: cell-based, human
Procedure: Tube formation assay for angiogenesis was conducted in 24-well plates were coated with 50 μl of Geltrex (Life Technologies, A14133-02) and left for polymerization by incubation for 1 hour at 37° C. […] Quantification of tube formation was performed after 10 hours of culture by calculating the number of branching point formed in each well under an inverted phase contrast photomicroscope (Olympus IX5O) as described^37.
ELA is a secreted hormone and expressed in adult kidney and prostate, and may, therefore, circulate in blood. […] Vascular tube formation assay is a well-used in vitro study to assess angiogenic factors and conditions in which vascular cells, e.g., human umbilical […] endothelial cells (HUVECs), can form tube-like structures under proangiogenic conditions in culture wells coated with Geltrex containing extra-cellular matrix. The number of branch points was an indicator of the strength of angiogenic stimuli.

APJ = experiment: qPCR of APJ mRNA in mice infused with ELA; assay type: in vivo, mouse
[5] = endothelium-intact vessels, contracted with U46619 30 nM

CSCC[C@H](NC(=O)[C@@H](NC(=O)[C@H](CC(C)C)NC(=O)[C@H](CC(N)=O)NC(=O)[C@@H](NC(=O)[C@@H]1CCCN1C(=O)[C@H](CCCNC(=N)N)NC(=O)[C@@H](N)CCC(N)=O)C(C)C)[C@@H](C)O)C(=O)N[C@@H](CCCNC(=N)N)C(=O)N[C@@H](CCCNC(=N)N)C(=O)N[C@@H](CCCCN)C(=O)N[C@@H](CC(C)C)C(=O)N[C@@H](CCCNC(=N)N)C(=O)N[C@@H](CCCCN)C(=O)N[C@@H](Cc1c[nH]cn1)C(=O)N[C@@H](CC(N)=O)C(=O)N[C@H]1CSSC[C@@H](C(=O)N[C@@H](CCSC)C(=O)N2CCC[C@H]2C(=O)N[C@@H](CC(C)C)C(=O)N[C@@H](Cc2c[nH]cn2)C(=O)N[C@@H](CO)C(=O)N[C@@H](CCCNC(=N)N)C(=O)N[C@H](C(=O)N2CCC[C@H]2C(=O)N[C@@H](Cc2ccccc2)C(=O)N2CCC[C@H]2C(=O)O)C(C)C)NC(=O)[C@H](CCCNC(=N)N)NC(=O)[C@H](CCCNC(=N)N)NC(=O)[C@H](CCC(N)=O)NC(=O)[C@H](CC(C)C)NC1=O [ELA, Elabela]
TUNEL green-labeled apoptotic cells in heart sections (Sprague-Dawley rats): much less green-labeled cells | urine volume (C57/BL6 mice): increased by about one fold | cardiomyocyte differentiation from PSCs [1]: potent inducer of cardiomyocyte differentiation | Ang II-induced gene expression of aldosterone synthase [2]: significantly suppressed | number of TUNEL-stained cells (human cardiomyocytes): significantly reduced | changes in cAMP, ERK ½ and calcium assays in empty vector control cells [3]: no meaningful changes | decrease of relaxation by removal of endothelium (mouse aortic rings): about 20% | maximum relaxation (mouse aortic rings; [5]): 73.7% | relaxation, L-NAME-treated vs none-treated vessels (mouse aortic rings; pretreated with 1 mM L-NAME): No significant difference | FS_LVD (C57/BL mice; MI mice, ELA group, Baseline): 29.65 ± 4.16% | FS_LVPW (C57/BL mice; MI mice, ELA group, Baseline): 30.36 ± 3.65% | IVSd (C57/BL mice; MI mice, ELA group, Baseline): 0.61 ± 0.05 mm | IVSs (C57/BL mice; MI mice, ELA group, Baseline): 0.99 ± 0.04 mm | LVDd (C57/BL mice; MI mice, ELA group, Baseline): 3.87 ± 0.20 mm | LVDs (C57/BL mice; MI mice, ELA group, Baseline): 2.68 ± 0.11 mm | LVEF (C57/BL mice; MI mice, ELA group, Baseline): 61.84 ± 7.39% | LVPWd (C57/BL mice; MI mice, ELA group, Baseline): 0.70 ± 0.03 mm | LVPWs (C57/BL mice; MI mice, ELA group, Baseline): 1.01 ± 0.04 mm | FS_LVD (C57/BL mice; MI mice, ELA infusion, Week 5): 22.68 ± 1.21 % | FS_LVPW (C57/BL mice; MI mice, ELA infusion, Week 5): 22.46 ± 4.49% | IVSd (C57/BL mice; MI mice, ELA infusion, Week 5): 0.73 ± 0.07 mm | IVSs (C57/BL mice; MI mice, ELA infusion, Week 5): 0.96 ± 0.11 mm | LVDd (C57/BL mice; MI mice, ELA infusion, Week 5): 4.48 ± 0.17 mm | LVDs (C57/BL mice; MI mice, ELA infusion, Week 5): 3.47 ± 0.16 mm | LVEF (C57/BL mice; MI mice, ELA infusion, Week 5): 45.65 ± 2.16 % | LVPWd (C57/BL mice; MI mice, ELA infusion, Week 5): 0.75 ± 0.05 mm | LVPWs (C57/BL mice; MI mice, ELA infusion, Week 5): 0.97 ± 0.04 mm | degree of left ventricular dilation and contractile dysfunction (C57/BL mice; MI mice, ELA vs vehicle): significantly mitigated | mice died during the experimental period (C57/BL mice; MI mice, one-month experimental period, control three of nine): one of eight | heart performance in sham op animals, vehicle vs ELA (C57/BL mice; sham op mice): no statistical difference | isoelectric point [4]: exceeding 12 | formation of tubular structures (HUVECs; APJ-knock down HUVECs): not effective | increase in number of branch points (HUVECs; ELA 0.1 μM): 71.9% | increase in number of branch points (HUVECs; ELA 0.5 μM): 222.8% | increase in number of branch points (HUVECs; ELA 1 μM): 266.7% | APJ mRNA expression (APJ): tended to decrease

apelin-13 [reference compound]
maximum relaxation (mouse aortic rings; denuded (endothelium removed) vessels): 31% | decrease of relaxation by removal of endothelium (mouse aortic rings): 48% | maximum relaxation (mouse aortic rings; [5]): 79%
